Reference: a melting point compilation (Tetko et al.; mined from patent text by program, amines drawn as free bases though some values may be those of a salt)

SMILES | melting point
Cc1ccc2c(cc(CCCC(=O)O)n2S(=O)(=O)c2ccccc2)n1 | 172 to 180 °C
N#CCCN(CCC#N)CCN(CCC#N)CCC#N | 63 to 65 °C
CC(C)NC(=O)OCC(=O)c1ccccc1 | 108 to 110 °C
CCCCSc1ccccc1C(=O)O | 96 to 101 °C
CCN(CC)CCC(=O)OCC1CC(c2ccc(-c3ccc(N4CC(Cn5ccnn5)OC4=O)cc3F)cn2)=NO1 (stereo not given) | 167 °C
COc1ccc(-c2cc(=O)n(Cc3ccccc3)nc2-c2ccc(OC)c(F)c2)cc1F | 114 to 115 °C
CC(C)(C)OC(=O)NCCNC(=O)c1ncsc1Br | 108 to 111 °C
CCOC(=O)N1CCC(Nc2nc3ccccc3n2Cc2ccccn2)CC1 | 162 °C
CCN(CC)c1nc(Nc2ccc3cc(-c4ccccc4)c(=O)oc3c2)nc(N2CCCC(CO)C2)n1 (stereo not given) | 182 to 183 °C
O=C1CCCN1CCCCCCN1CCCC1=O | 101 to 103 °C
CCCOc1ncc(NC(=O)CC(=O)O)cc1-c1nc2c(CCC)nn(C)c2c(=O)[nH]1 | 261 to 262 °C
COc1ccc(C(NCC(=O)Nc2c(C(C)C)cccc2C(C)C)c2ccccc2)cc1 (stereo not given) | 117 to 118 °C
C#CCn1c(=O)nc(-c2ccc3c(c2)OCO3)c2cc3c(cc21)OCO3 | 235 to 240 °C
COc1ccc2cnc(N)nc2c1C(C)C | 112 to 113 °C
CCOC(=O)c1cnc2nc(C)c(OCC)cc2c1Cl | > 250 °C
CC1(O)OC(=O)c2ccc(Oc3ccc(C(F)(F)F)cc3Cl)cc21 (stereo not given) | 100 to 103 °C
CC(C#N)(COc1cc(C#N)ccc1C(F)(F)F)NC(=O)c1ccc(SC(F)(F)F)cc1 (stereo not given) | 126 to 127 °C
COC(=O)c1nc(CN2CCOCC2)n(-c2ccc(Cl)cc2C(=O)c2ccccc2Cl)n1 | 141 to 143 °C
CC12C=CCC1C1CCC3=C(CCC(=O)C3)C1CC2 (stereo not given) | 112 to 116 °C
Cc1cn(Cc2ccc(F)cc2)cc1C(=O)CC(=O)C(=O)O | 162 to 163 °C

SMILES | melting point
O=C(O)c1ccc(C#CC2(O)CN3CCC2CC3)cc1 (stereo not given) | 288 to 290 °C
O=c1[nH]c2c(Cl)ccc(Cl)c2c(=O)n1CCCN1CC=C(c2ccc(Cl)cc2)CC1 | 207 to 209 °C
O=c1c2ccccc2nc(CCc2c[nH]c3ccccc23)n1-c1ccccc1 | 193 to 194 °C
COc1cc(C(C)C)ccc1C1(NC(=O)C2CC2)C(=O)c2ccccc2C1=O | 145 to 147 °C
Cc1cc(Sc2ccc3nc(COc4ccc(CC5SC(=O)NC5=O)cc4)n(C)c3n2)cc(C)c1NC(=O)Nc1ccc(C(F)(F)F)cc1 (stereo not given) | 193 to 195 °C
CCOC(=O)C(=Cc1cccn2cc(Br)nc12)N=[N+]=[N-] | 149 to 151 °C
CSc1ccc2oc3ccccc3c2c1 | 85 to 87 °C
CCn1ncc2c(NCC3CCCCC3)c3cc(OC)ccc3nc21 | 235 to 237 °C
Cc1cccc(N)c1CNc1cccn2c(C=O)c(C)nc12 | 230 to 234 °C
CC(C)(C)c1cc(SCO)cc(C(C)(C)C)c1O | 79 to 82 °C
CCn1ncc2c3noc(-c4ccc(C)cc4)c3cnc21 | 221 to 222 °C
OC1(C2CC2)c2ccccc2OCc2ncccc21 (stereo not given) | 210 to 212 °C
CCCC(NS(=O)(=O)c1ccc(Cl)cc1)C(=S)Nc1ccc(CC(=O)OCC)cc1 (racemic) | 121 to 123 °C
O=C1c2c(O)cccc2C(c2cccs2)c2cccc(O)c21 | 181 to 182 °C
CN(C)C(=O)c1ccc(-c2ccc(Cl)cc2)o1 | 101 to 102 °C
COC(=O)Oc1c(Cl)c(-c2ccc(Cl)cc2)oc(=O)c1-c1c(C)cc(C)cc1C | 136 to 138 °C
CCCCCCNC1=NS(=O)(=O)c2sc(Cl)cc2N1 | 207 to 209 °C
O=C(Nc1cc(OCCCON=Cc2ccc(-c3ccccc3)cc2)ccc1C(=O)O)c1ccc(OC(F)(F)F)cc1 | 188 °C
CCOC(=O)c1ccc(/C=C/C2CCCN2C(=O)OC(C)(C)C)cc1 (stereo not given) | 68 to 70 °C
Cc1ccc(N)c(C(N)=O)c1 | 171 to 174 °C
